In PubChem BioAssay (NCI) one finds TGI data, which are given here for 14 compounds.

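Assay format: 96-well plates, 48-hour exposure. TGI marks complete inhibition of growth.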 Where a SMILES comes first, the peptide text is derived from it. The star is where a group is joined. Boc = CC(C)(C)OC(=O)* Some results are limits rather than exact numbers.

Test systems include MALME-3M melanoma; NCI-H460 lung; SK-MEL-28 melanoma; 786-0 renal; DU-145 prostate; IGROV1 ovarian; CAKI-1 renal; UACC-257 melanoma; HT29 colon; UACC-62 melanoma; UO-31 renal; SK-OV-3 ovarian; SN12C renal; A549 NSCLC; HCT-15 colon; SF-539 CNS; RPMI-8226 leukemia.
What all share (assay): inhibition of tumour cell growth, NCI panel, 48 h

On to `CCCC(=O)OCC1(CO)C/C(=C/CC(C(C)C)C(C)C)C(=O)O1` (stereo not drawn), for which the TGI in the experiment on MALME-3M melanoma, with NCI-H460 lung, in the experiment on SK-MEL-28 melanoma, in the experiment with 786-0 renal, with DU-145 prostate and in the experiment with IGROV1 ovarian was more than 100 µM throughout. Moreover, the TGI with CAKI-1 renal, with UACC-257 melanoma, in the experiment on HT29 colon, in the experiment on UACC-62 melanoma, in the experiment with UO-31 renal and in the experiment on SK-OV-3 ovarian was more than 100 µM in each case. In addition, the TGI in the experiment on SN12C renal, in the experiment on A549 NSCLC and in the experiment with HCT-15 colon was more than 100 µM each time.

`COc1ccc(OC)c(/C=C/C(=O)C(C)(C)C)c1`: the TGI in the experiment on SF-539 CNS is 38.4 µM; in the experiment with MALME-3M melanoma, 45.3 µM; with NCI-H460 lung, more than 100 µM; with SK-MEL-28 melanoma it was 31.8 µM; in the experiment with 786-0 renal it was 36.9 µM; with RPMI-8226 leukemia it was 40.7 µM. For the same compound, the TGI with IGROV1 ovarian was determined as 42.6 µM; in the experiment on CAKI-1 renal it was 39.1 µM; with HT29 colon, 64.1 µM; in the experiment with UACC-62 melanoma, 23.4 µM; in the experiment with SK-OV-3 ovarian it was 90.4 µM; in the experiment with SN12C renal, 45.4 µM. Moreover, the figures for the TGI in the experiment with A549 NSCLC and with HCT-15 colon were 82.1 µM and 41.2 µM, respectively.

Consider `Fc1ccc2c(c1)SC1Oc3ccccc3-c3c1c-2nn3-c1ccccc1` (stereo not drawn), for which the TGI with SF-539 CNS, in the experiment on MALME-3M melanoma, in the experiment with NCI-H460 lung, in the experiment on SK-MEL-28 melanoma, in the experiment with 786-0 renal and in the experiment with RPMI-8226 leukemia was more than 100 µM each time. Further, the TGI in the experiment with IGROV1 ovarian, in the experiment on UACC-257 melanoma, with HT29 colon, in the experiment with UO-31 renal, in the experiment on SK-OV-3 ovarian and with A549 NSCLC was more than 100 µM each time.

In the case of `CC(C)Oc1c(C2(c3ccccc3O)SCCCS2)c(=O)c1=O`, the TGI with SF-539 CNS, in the experiment on NCI-H460 lung, with SK-MEL-28 melanoma, with 786-0 renal, in the experiment with DU-145 prostate and in the experiment on IGROV1 ovarian was more than 100 µM each time. Besides, the TGI in the experiment with CAKI-1 renal, in the experiment on UACC-257 melanoma, in the experiment with HT29 colon, in the experiment with UACC-62 melanoma, in the experiment with UO-31 renal and in the experiment on SK-OV-3 ovarian was more than 100 µM in each case. In addition, the TGI in the experiment with SN12C renal, in the experiment on A549 NSCLC and in the experiment on HCT-15 colon was more than 100 µM throughout.

Turning to `CCOC(=O)C1(Br)C(c2ccccc2)NC(=O)N(C2OC(COC(=O)c3ccccc3)C(OC(=O)c3ccccc3)C2OC(=O)c2ccccc2)C1(C)Br` (stereo not drawn), the TGI with SF-539 CNS is more than 100 µM; in the experiment with MALME-3M melanoma, 66.7 µM; in the experiment on NCI-H460 lung, more than 100 µM; with SK-MEL-28 melanoma, more than 83.8 µM; with 786-0 renal, more than 100 µM; with RPMI-8226 leukemia it was 33.2 µM. The TGI is more than 100 µM in the experiment on IGROV1 ovarian; more than 100 µM in the experiment on CAKI-1 renal; 52.4 µM in the experiment on UACC-257 melanoma; more than 100 µM with HT29 colon; 60.1 µM with UACC-62 melanoma; more than 94.8 µM in the experiment on UO-31 renal. In addition, the TGI in the experiment with SK-OV-3 ovarian is more than 100 µM; in the experiment with SN12C renal, more than 100 µM; with A549 NSCLC, more than 100 µM; in the experiment on HCT-15 colon it was more than 50.1 µM.

As to `Cc1cc(C)c(S(=O)(=O)N(CCCCCCN)OCCCN)c(C)c1`, the TGI with SF-539 CNS is 34.2 µM; in the experiment on MALME-3M melanoma, 24 µM; in the experiment on NCI-H460 lung, 31.6 µM; in the experiment on SK-MEL-28 melanoma it was 36.1 µM; in the experiment on 786-0 renal, 32.1 µM; with RPMI-8226 leukemia it was more than 100 µM. In addition, the TGI came out at 31.3 µM in the experiment with DU-145 prostate; 29.6 µM in the experiment on IGROV1 ovarian; 29.7 µM in the experiment on UACC-257 melanoma; 30 µM with HT29 colon; 40 µM in the experiment on UACC-62 melanoma; 43.2 µM in the experiment with UO-31 renal. Further, the TGI with SK-OV-3 ovarian is 34 µM; in the experiment on SN12C renal, 37.2 µM; with A549 NSCLC, more than 100 µM; in the experiment on HCT-15 colon, 32.5 µM.

As to `COc1cc2c(cc1OC)C(=O)Cc1ccc3c(c1CNCC2)OCO3`, the TGI with SF-539 CNS, in the experiment with MALME-3M melanoma, in the experiment on NCI-H460 lung, in the experiment with SK-MEL-28 melanoma, in the experiment on 786-0 renal and with RPMI-8226 leukemia was more than 100 µM each time. Also, the TGI with IGROV1 ovarian, in the experiment with CAKI-1 renal, in the experiment on UACC-257 melanoma, in the experiment on HT29 colon, in the experiment with UACC-62 melanoma and with UO-31 renal was more than 100 µM each time. For the same compound, the TGI in the experiment with SK-OV-3 ovarian, with SN12C renal, with A549 NSCLC and in the experiment with HCT-15 colon was more than 100 µM each time.

`CCN(CC)CCSc1n[nH]c(-c2c[nH]c3nc(C)ccc3c2=O)n1`: the TGI with MALME-3M melanoma, in the experiment with NCI-H460 lung, in the experiment on SK-MEL-28 melanoma, with 786-0 renal, in the experiment on RPMI-8226 leukemia and in the experiment on DU-145 prostate was more than 100 µM each time. The TGI with IGROV1 ovarian, with CAKI-1 renal, in the experiment with UACC-257 melanoma, with HT29 colon, in the experiment with UACC-62 melanoma and in the experiment with UO-31 renal was more than 100 µM throughout. Also, the TGI with SN12C renal, with A549 NSCLC and in the experiment on HCT-15 colon was more than 100 µM in each case.

`OC1CSCCCSCCSCCCSC1`: the TGI in the experiment on SF-539 CNS, in the experiment on NCI-H460 lung, in the experiment on SK-MEL-28 melanoma, in the experiment with 786-0 renal, with RPMI-8226 leukemia and in the experiment with DU-145 prostate was more than 100 µM in each case. In addition, the TGI in the experiment with IGROV1 ovarian, in the experiment on CAKI-1 renal, with UACC-257 melanoma, in the experiment with HT29 colon, in the experiment on UACC-62 melanoma and with UO-31 renal was more than 100 µM in each case. Also, the TGI in the experiment on SK-OV-3 ovarian, with SN12C renal, in the experiment with A549 NSCLC and with HCT-15 colon was more than 100 µM in each case.

In the case of `O=C1CCc2nc3ncccc3cc2C1`, the TGI in the experiment on MALME-3M melanoma, in the experiment on NCI-H460 lung, in the experiment on SK-MEL-28 melanoma, in the experiment with 786-0 renal, in the experiment with RPMI-8226 leukemia and in the experiment with IGROV1 ovarian was more than 100 µM each time. In addition, the TGI in the experiment on CAKI-1 renal, with UACC-257 melanoma, in the experiment with UO-31 renal, in the experiment with SK-OV-3 ovarian, in the experiment with SN12C renal and with A549 NSCLC was more than 100 µM in each case. Further, the TGI in the experiment with HCT-15 colon was more than 100 µM.

Take `CCOC(=O)CCSS(=O)(=O)C(F)(F)F`: the TGI in the experiment with NCI-H460 lung, in the experiment with SK-MEL-28 melanoma, in the experiment with 786-0 renal, in the experiment with RPMI-8226 leukemia, in the experiment with DU-145 prostate and in the experiment on IGROV1 ovarian was more than 100 µM each time. Moreover, the TGI in the experiment on CAKI-1 renal, with UACC-257 melanoma, with UACC-62 melanoma, in the experiment on UO-31 renal, with SK-OV-3 ovarian and with SN12C renal was more than 100 µM each time. Further, the TGI in the experiment on A549 NSCLC and with HCT-15 colon was more than 100 µM throughout.

For the compound `O=C(CSc1nnc(Cc2ccccc2)o1)Nc1ccccc1Cl`, the TGI in the experiment on SF-539 CNS, in the experiment on MALME-3M melanoma, in the experiment with NCI-H460 lung, with SK-MEL-28 melanoma, in the experiment with 786-0 renal and with RPMI-8226 leukemia was more than 100 µM each time. Moreover, the TGI in the experiment on IGROV1 ovarian, in the experiment with CAKI-1 renal, with HT29 colon, with UACC-62 melanoma, with UO-31 renal and in the experiment with SK-OV-3 ovarian was more than 100 µM each time. Further, the TGI with SN12C renal, in the experiment on A549 NSCLC and with HCT-15 colon was more than 100 µM each time.

`Cc1nc2nn(Cc3ccccc3)cc2c(=O)o1`: the TGI in the experiment on SF-539 CNS, in the experiment with MALME-3M melanoma, in the experiment with NCI-H460 lung, in the experiment on 786-0 renal, with RPMI-8226 leukemia and in the experiment with IGROV1 ovarian was more than 100 µM throughout. Further, the TGI in the experiment on UACC-257 melanoma, in the experiment on HT29 colon, in the experiment on UACC-62 melanoma, in the experiment with UO-31 renal, in the experiment with SN12C renal and in the experiment on A549 NSCLC was more than 100 µM in each case. In the experiment on HCT-15 colon, this compound yielded a TGI of more than 100 µM.

Turning to `COC(=O)C(Cc1c[nH]c2ccccc12)NC(=O)C(Cc1c[nH]c2ccccc12)NC(=O)C(Cc1c[nH]c2ccccc12)NC(=O)OC(C)(C)C` (stereo not drawn) (Boc-Trp-Trp-Trp-OMe; configuration not given here), the TGI in the experiment on MALME-3M melanoma was more than 100 µM; in the experiment with NCI-H460 lung, 36 µM; in the experiment with SK-MEL-28 melanoma it was 33.8 µM; in the experiment with 786-0 renal, 31.7 µM; in the experiment with RPMI-8226 leukemia, 58.6 µM; in the experiment with IGROV1 ovarian, 40.5 µM. In addition, the TGI in the experiment on UACC-257 melanoma is more than 100 µM; with HT29 colon, 35.9 µM; with UACC-62 melanoma it was 38.3 µM; in the experiment with UO-31 renal it was more than 100 µM; with SN12C renal it was 39.4 µM; in the experiment on A549 NSCLC, more than 100 µM. For the same compound, the TGI with HCT-15 colon came to 41.4 µM.
